Columns and labels:
[1] = test system: lipoprotein lipase associated with 3T3-L1 adipocytes; assay: Heparin-releasable lipoprotein lipase (LPL) activity in 3T3-L1 adipocyte cultures; assay type: cell-based; settings: for potency in reducing LPL (rank order, in words): FIG. 5B, 20–24 hours, all test compounds at 100 μM; for LPL activity (in words): CLA 100 μM, aspirin 100 μM
Protocol: Using the same model, the effects on LPL of aspirin and NDGA, as compared to CLA, were tested. 3T3-L1 preadipocytes were cultured as described. […] Briefly, 3T3-L1 preadipocytes were grown to confluence at 37° C. in Dulbecco's Modified Eagle's Medium (DMEM) with 10% fetal bovine serum (FBS). At two days post-confluence (designated “day 0”) cell differentiation was induced with a mixture of methylisobutylxanthine (0.5 mM), dexamethasone (0.25 μM), and insulin (1 μg/ml) in DMEM containing 10% FBS. On “day 2” this medium was replaced with DMEM medium containing 10% FBS and insulin only. On “day 4” and thereafter the medium was DMEM plus 10% FBS only; this medium was subsequently replaced with fresh medium at 2 day intervals.
First, aspirin was tested along with PGE2, which is the final product of cyclooxygenase. Cells were treated with testing compounds for 4 hours before harvesting at day 6 or 7 post differentiation. The concentration of CLA, aspirin, and PGE2 were 1×10^−4 M, 1×10^−4 M, and 1×10^−6 M respectively. […] All dishes (including control) contained the same concentration of albumin (1×10^−4 M) and ethanol (final concentration of 0.1%).
Heparin-releasable lipoprotein lipase (LPL) activity (EC 3.1.1.34, 10 U heparin/ml media for 1 hr at 37° C.) was measured as described. Nilsson-Ehle, P. and M. C. […] Protein was determined using Bio-Rad DC Protein assay kit.
In a next set of cell culture experiments, shown in FIG. 4, cells were treated with testing compounds for 20–24 hours at day 7 post differentiation. […] CLA was complexed with albumin, and aspirin and NDGA were dissolved in ethanol. All dishes including control contained the same concentration of albumin (1×10^−4 M) and ethanol (final concentration of 0.05%). Numbers are mean±S.E. (n=7–8, collected from 2 independent experiments).
(§1) Cells were treated with other known lipoxygenase inhibitors. Cells were treated with testing compounds for 20–24 hours at day 6 or 7 post differentiation. Based on the ED50 of these inhibitors, various doses were first tested. In FIG. 5A, the concentration of SHA, CLA, ETYA, indomethacin, NDGA and AA861 were 1×10^−3 M, 1×10^−4 M, 1×10^−4 M, 1×10^−4 M, 1×10^−5 M and 1×10^−6 M, respectively. In FIG. 5B, the cells were treated with the test compounds at 1×10^−4 M. CLA was complexed with albumin and others were dissolved in ethanol. All dishes including control contained the same concentration of albumin (1×10^−4 M) and ethanol (final concentration of 0.1%). Numbers are mean±S.E. (in FIG. 5A, n=7–8, collected from 2 independent experiments, in FIG. 5B, n=11–12, collected from 3 independent experiments). […] Indomethacin blocks both cyclooxygenase and lipoxygenase, the two primary enzymes in the arachidonic acid metabolic cascade.

[2] = Food intake of mice on NDGA/CLA diets (Experiment 2); assay type: in vivo; settings: male ICR mice; for food intake, Total / food intake, Week 1 / food intake, Week 4: mean±S.E., N=5–6
Protocol: (§2) After a 5 day adaptation period, four-week-old weanling male ICR mice (Harlan Sprague-Dawley) were randomly separated into groups that were fed one of the treatment diets for 4 weeks. Mice were fed either a control diet (as in Experiment 1), or a diet supplemented with CLA (0.1%), NDGA (0.1% or 0.005%), or CLA (0.1%) with NDGA (0.1% or 0.005%). The lower level of NDGA was chosen based on the level used as an antioxidant in the food industry. Supplemental NDGA was added to diets at the expense of sugar. Diet was stored at −20° C. until use. Mice were housed individually in a windowless room with a 12-h light-dark cycle in strict accordance to guidelines established by the Research Animal Resources Center of University of Wisconsin-Madison. Diet and water, available ad libitum, were freshly provided three times per week.

[3] = test system: ICR mice; assay: Body composition analysis of mice on NDGA/CLA diets (Experiment 2); assay type: in vivo; settings: male ICR mice; for % Ash / ECW (empty carcass weight): mean±S.E., N=5–6; for body composition versus control (in words): 4 weeks
Protocol: For body composition analyses, animals were sacrificed, gut contents were removed (to obtain empty carcass weight, “ECW”), and the carcasses frozen at −20° C. Frozen carcasses were chopped, and freeze dried to determine water content. Each dried carcass was ground to give a homogeneous sample before further analysis. Total nitrogen was analyzed by the Kjeldahl method. Helrich, K., Official Methods of Analysis, 15th ed.: 935–937(1990). Carcass fat content was measured by extraction with diethyl ether overnight using a Soxhlet apparatus. Total ash content was determined by incineration (500–600° C., overnight).
as §2

[4] = Body weights of mice on NDGA/CLA diets (Experiment 2, FIG. 2); assay type: in vivo; settings: male ICR mice
Protocol: as §2

[5] = test system: 3T3-L1 adipocytes; assay: Glycerol released from 3T3-L1 adipocytes; assay type: cell-based; settings: treated 20–24 hours
Protocol: (§3) Fat reduction by CLA is partly due to inhibition of lipoprotein lipase (LPL) in adipocytes, as has been previously shown using a 3T3-L1 adipocyte cell culture model. Using the same model, the effects on LPL of aspirin and NDGA, as compared to CLA, were tested. 3T3-L1 preadipocytes were cultured as described. Frost, S. C. and M. D. Lane, J. Biol. Chem. 260: 2646–2652(1985). Briefly, 3T3-L1 preadipocytes were grown to confluence at 37° C. in Dulbecco's Modified Eagle's Medium (DMEM) with 10% fetal bovine serum (FBS). At two days post-confluence (designated “day 0”) cell differentiation was induced with a mixture of methylisobutylxanthine (0.5 mM), dexamethasone (0.25 μM), and insulin (1 μg/ml) in DMEM containing 10% FBS. On “day 2” this medium was replaced with DMEM medium containing 10% FBS and insulin only. On “day 4” and thereafter the medium was DMEM plus 10% FBS only; this medium was subsequently replaced with fresh medium at 2 day intervals.
as §1, with “cascade. […] When 100 μM of these were tested, the potency was AA861>NDGA>ETYA>Indomethacin>CLA. […]” for “cascade.”

[6] = test system: fat tissue; settings: reported by Gowri et al. 2000; cited from earlier work
[7] = test system: ICR mice; assay: Body composition analysis of mice on aspirin/CLA diets (Experiment 1); assay type: in vivo; settings: female ICR mice, 4 weeks
From the text: After a 5 day adaptation period, four-week-old weanling female ICR mice (Harlan Sprague-Dawley) were randomly separated into groups that were fed one of the treatment diets for 4 weeks. Mice were fed either a control diet, or a diet supplemented with aspirin alone (0.03%), 0.5% CLA alone, or CLA with additional aspirin (0.006% [“Asp1”] or 0.03% [“Asp2”]). The control diet was semi-purified TD94060 diet, 99% basal mix from Harlan Teklad, Madison, Wis. that contained (ingredient, g/kg): sucrose, 476; casein, “vitamin-free” test, 210; corn starch, 150; DL-methionine, 3; corn oil 55; cellulose, 50; mineral mix, AIN-76, 35; vitamin mix, AIV-76A, 10; calcium carbonate, 4; choline bitartrate, 2; and ethoxyquin, 0.1. The aspirin doses reflect an average human dose (0.03%) or a recommended dose for preventing cardiovascular disease (0.006%). Supplemental CLA was added to diets at the expense of corn oil. Diet was stored at −20° C. until use. […]
For body composition analyses, animals were sacrificed, gut contents were removed (to obtain empty carcass weight, “ECW”), and the carcasses frozen at −20° C. […] Total nitrogen was analyzed by the Kjeldahl method. […] Carcass fat content was measured by extraction with diethyl ether overnight using a Soxhlet apparatus. Total ash content was determined by incineration (500–600° C., overnight).

[8] = Body weights of mice on aspirin/CLA diets (Experiment 1, FIG. 1); assay type: in vivo; settings: female ICR mice, 0.5% CLA and/or 0.03% aspirin
From the text: After a 5 day adaptation period, four-week-old weanling female ICR mice (Harlan Sprague-Dawley) were randomly separated into groups that were fed one of the treatment diets for 4 weeks. Mice were fed either a control diet, or a diet supplemented with aspirin alone (0.03%), 0.5% CLA alone, or CLA with additional aspirin (0.006% [“Asp1”] or 0.03% [“Asp2”]). The control diet was semi-purified TD94060 diet, 99% basal mix from Harlan Teklad, Madison, Wis. that contained (ingredient, g/kg): sucrose, 476; casein, “vitamin-free” test, 210; corn starch, 150; DL-methionine, 3; corn oil 55; cellulose, 50; mineral mix, AIN-76, 35; vitamin mix, AIV-76A, 10; calcium carbonate, 4; choline bitartrate, 2; and ethoxyquin, 0.1. The aspirin doses reflect an average human dose (0.03%) or a recommended dose for preventing cardiovascular disease (0.006%). Supplemental CLA was added to diets at the expense of corn oil. Diet was stored at −20° C. until use. Mice were housed individually in a windowless room with a 12-h light-dark cycle in strict accordance to guidelines established by the Research Animal Resources Center of University of Wisconsin-Madison. Diet and water, available ad libitum, were freshly provided three times per week.

[9] = test system: 3T3-L1 adipocytes; assay: Cellular triacylglyceride (TG) in 3T3-L1 adipocytes; assay type: cell-based; settings: treated 20–24 hours
Protocol: as §3
Cells were treated with other known lipoxygenase inhibitors. Cells were treated with testing compounds for 20–24 hours at day 6 or 7 post differentiation. Based on the ED50 of these inhibitors, various doses were first tested. In FIG. 5A, the concentration of SHA, CLA, ETYA, indomethacin, NDGA and AA861 were 1×10^−3 M, 1×10^−4 M, 1×10^−4 M, 1×10^−4 M, 1×10^−5 M and 1×10^−6 M, respectively. […]

[10] = FIG. 3, treated 4 hours, day 6 or 7 post differentiation, PGE2 1 μM
[11] = 4 weeks diet with 0.005% NDGA, with or without 0.1% CLA
[12] = 4 weeks diet with 0.1% CLA and/or 0.1% NDGA
[13] = diet with 0.005% NDGA, with or without 0.1% CLA
[14] = diet with 0.1% CLA and/or 0.1% NDGA
[15] = 0.005% NDGA, with or without 0.1% CLA
[16] = FIG. 4, treated 20–24 hours at day 7 post differentiation, NDGA 50 μM

COc1ccc2c(c1)c(CC(=O)O)c(C)n2C(=O)c1ccc(Cl)cc1 [Indomethacin, indomethacin]
potency in reducing LPL (rank order, in words) [1]: AA861>NDGA>ETYA>Indomethacin>CLA

CCCCC[C@H](O)/C=C/[C@H]1[C@H](O)CC(=O)[C@@H]1C/C=C\CCCC(=O)O [PGE2, Prostaglandin E2]
LPL activity (in words) [1, 10]: no effect on LPL

CC(Cc1ccc(O)c(O)c1)C(C)Cc1ccc(O)c(O)c1 (stereo not drawn) [NDGA, nordihydroguaiaretic acid]
food intake, Total [2, 11]: 136.3 ± 1.3 g/mouse
food intake, Total [2, 12]: 137.9 ± 1.9 g/mouse
food intake, Week 1 [2, 13]: 33.8 ± 0.6 g/mouse
food intake, Week 4 [2, 13]: 34.0 ± 0.4 g/mouse
food intake, Week 1 [2, 14]: 35.2 ± 0.7 g/mouse
food intake, Week 4 [2, 14]: 33.8 ± 1.0 g/mouse
% Ash [3, 11]: 3.29 ± 0.12%
ECW (empty carcass weight) [3, 11]: 32.2 ± 0.6 g
% Ash [3, 12]: 3.43 ± 0.09%
ECW (empty carcass weight) [3, 12]: 31.9 ± 1.3 g
body composition versus control (in words) [3, 15]: no effect on body composition
body composition versus control (in words) ([3]; 0.1% CLA and/or 0.1% NDGA): reduced fat (p<0.209) and increased water and protein
body weights (in words) [4, 15]: no difference in body weights
body weights (in words) ([4]; 0.1% CLA and/or 0.1% NDGA): no difference in body weights
LPL activity (in words) [1, 16]: significantly reduced LPL activity
potency in reducing LPL (rank order, in words) [1]: AA861>NDGA>ETYA>Indomethacin>CLA
glycerol released from the cell (in words) [5]: reduced the glycerol release
lipolysis in fat tissue (in words) [6]: reduce lipolysis

CC1=C(C)C(=O)C(CCCCC#CCCCC#CCO)=C(C)C1=O [AA861, 2-[12-hydroxydodeca-5,10-diynyl]-3,5,6-trimethyl-p-benzoquinone]
potency in reducing LPL (rank order, in words) [1]: AA861>NDGA>ETYA>Indomethacin>CLA
glycerol released from the cell (in words) [5]: reduced the glycerol release

CC(=O)Oc1ccccc1C(=O)O [aspirin, Acetylsalicylic acid]
effect of added aspirin on CLA's effects on body composition (in words) ([7]; 0.006% or 0.03% aspirin with 0.5% CLA): did not change any of CLA's effects
body composition versus control (in words) ([7]; 0.5% CLA with or without aspirin, aspirin alone 0.03%): no effect on body composition
body weights, weeks 0 through 3 (in words) [8]: no difference in body weights
LPL activity (in words) [1, 10]: no effect on LPL
LPL activity (in words) [1, 16]: no effect

CCCCCC#CCC#CCC#CCC#CCCCC(=O)O [ETYA, 5,8,11,14-eicosatetraynoic acid]
potency in reducing LPL (rank order, in words) [1]: AA861>NDGA>ETYA>Indomethacin>CLA

Conjugated linoleic acid [CLA]
body weights, weeks 0 through 3 (in words) [8]: no difference in body weights
food intake compared to control (in words) ([2]; 0.1% CLA, with or without 0.1% NDGA): reduced food intake only at week 3
food intake, Total [2, 12]: 136.6 ± 1.2 g/mouse
food intake, Week 1 [2, 14]: 34.5 ± 0.3 g/mouse
food intake, Week 4 [2, 14]: 32.4 ± 0.7 g/mouse
% Ash [3, 12]: 3.49 ± 0.07%
ECW (empty carcass weight) [3, 12]: 32.0 ± 0.9 g
body composition versus control (in words) ([3]; 0.1% CLA and/or 0.1% NDGA): reduced fat (p<0.197) and increased water and protein
body weights (in words) ([4]; 0.1% CLA and/or 0.1% NDGA): no difference in body weights
LPL activity (in words) [1, 10]: significantly decreased LPL activity
LPL activity (in words) [1, 16]: significantly reduced LPL activity
potency in reducing LPL (rank order, in words) [1]: AA861>NDGA>ETYA>Indomethacin>CLA
amount of cellular triacylglyceride (TG) (in words) [9]: reduced
glycerol released from the cell (in words) [5]: increased the glycerol released

— US7365099B2, “Animal body fat control” (Wisconsin Alumni Research Foundation, priority 2001, dated 2008)
